According to US5811445A, “Method of preventing abnormal stimulation of AT1 and AT2 receptors” (Roussel Uclaf, priority 1994, dated 1998):
Where two headings read alike, the source gives them in different places.

Experiments:
[1] = tested on: angiotensin II (pressure effects); assay: Test for antagonistic activity of angiotensin II in the demedullated rat; type: in vivo, Male Sprague-Dawley rats; settings: PO, inhibition of pressure effects of angiotensin II (0.75 micrograms/kg), read-out: ID50 PO
[2] = tested on: angiotensin II (pressure effects); assay: as above; type: in vivo, Male Sprague-Dawley rats; settings: IV, inhibition of pressure effects of angiotensin II (0.75 micrograms/kg), read-out: ID50 IV
Protocol: 3 - Test for antagonistic activity of angiotensin II in the demedullated rat
Male Sprague-Dawley rats (250 to 350 g) are anaesthetized by an intraperitoneal injection with sodium pentobarbital (60 mg/kg). The diastolic arterial pressure is recorded by means of a heparin catheter (PE50) introduced into the left carotid of the animal, and connected to a pressure processor (Gould, Pressure Processor) via a Gould pressure sensor.
A catheter is introduced into the right jugular vein of the animal in order to allow injection of the molecules being studied.
The animal is placed under assisted respiration. A bilateral section of the vagus nerves is carried out. The rat is then demedullated.
After a sufficient stabilization period, study of the antagonism of the molecules vis-a-vis angiotensin II (Hypertensin, CIBA) is carried out in the following manner:
1 - Three consecutive injections of angiotensin II (0.75 micrograms/kg) 15 minutes apart allow a reproducible and stable pressure response to be obtained.
2 - While maintaining a periodicity of 15 minutes for the administration of angiotensin II, the molecules (0.01 to 10 mg/kg) are injected 5 minutes before the angiotensin II.
The pressure effects of angiotensin II in the presence of the antagonist are expressed as a percentage of the pressure effects of angiotensin II administered alone. The 50% inhibitory dose (ID50) of the effect studied is thus determined.
Each animal is considered as its own control.

[3] = target: T1, AT1 receptor of angiotensin II (Rattus norvegicus, UniProt P25095); assay: Test on the AT1 receptor of angiotensin II (displacement of 125I angiotensin II, rat liver membranes); type: binding
T1 construct: A fresh membrane preparation obtained from rat's liver is used; from tissue; host or cells: rat liver membranes
T1 sequence (P25095 1-359): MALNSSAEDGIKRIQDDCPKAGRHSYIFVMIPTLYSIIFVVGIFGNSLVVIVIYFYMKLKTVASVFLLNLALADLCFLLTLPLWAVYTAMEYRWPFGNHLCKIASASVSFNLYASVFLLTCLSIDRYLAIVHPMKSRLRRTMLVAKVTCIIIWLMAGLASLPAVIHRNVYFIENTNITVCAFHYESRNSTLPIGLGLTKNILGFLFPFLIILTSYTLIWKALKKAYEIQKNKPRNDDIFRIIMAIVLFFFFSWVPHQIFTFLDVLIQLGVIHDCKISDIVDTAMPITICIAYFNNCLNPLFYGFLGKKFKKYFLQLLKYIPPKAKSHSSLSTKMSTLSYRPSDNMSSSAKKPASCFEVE
Protocol: 1 - Test on the AT1 -receptor of angiotensin II
A fresh membrane preparation obtained from rat's liver is used. The tissue is ground up in a polytron in a 50 mM Tris buffer pH 7.4, the grinding is followed by 3 centrifugations at 30,000 g for 15 minutes with intermediate take up of the pellets in the Tris buffer pH 7.4.
(§1) (The product is first tested with 3×10^-5 M three times). When the tested product displaces more than 50% of the radioactivity specifically bound to the receptor, it is tested again according to a range of 7 concentrations in order to determine the concentration which inhibits by 50% the radioactivity specifically bound to the receptor. In this way the 50% inhibitory concentration is determined).
(§2) After incubation at 25° C. for 150 minutes, placing in a water-bath at 0° C. for 5 minutes, filtration under vacuum, and rinsing with Tris buffer pH 7.4, the radioactivity is counted in the presence of a scintillating solid.

[4] = target: T2, AT2 receptor of angiotensin II (Oryctolagus cuniculus, UniProt G1T351); assay: Test on the AT2 receptor of angiotensin II (displacement of 125I angiotensin II, rabbit uterus membranes); type: binding
T2 construct: A fresh membrane preparation obtained from rabbit's uterus is used; from tissue; host or cells: uterus membranes of estradiol-treated rabbits
T2 sequence (G1T351 1-363): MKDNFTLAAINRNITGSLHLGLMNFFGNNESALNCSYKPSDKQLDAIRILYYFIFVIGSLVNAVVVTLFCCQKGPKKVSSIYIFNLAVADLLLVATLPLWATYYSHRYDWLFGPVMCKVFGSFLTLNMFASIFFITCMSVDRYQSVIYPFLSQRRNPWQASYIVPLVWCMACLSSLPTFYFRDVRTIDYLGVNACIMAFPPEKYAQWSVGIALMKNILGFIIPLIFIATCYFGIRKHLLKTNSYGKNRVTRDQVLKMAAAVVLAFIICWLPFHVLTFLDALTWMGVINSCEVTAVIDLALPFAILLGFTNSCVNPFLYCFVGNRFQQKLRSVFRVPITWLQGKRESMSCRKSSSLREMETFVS
Protocol: 2) Test on the AT2 receptor of angiotensin II
The tissue is ground up in a polytron in a 50 mM Tris buffer pH 7.4, and the grinding is followed by 3 centrifugations at 30,000 g for 15 minutes, with intermediate take up of the pellets in the Tris buffer pH 7.4.
The homogenate obtained is preincubated for 20 minutes at 25° C. in the presence of 10 mM dithiothreitol, then brought back to 0°-4° C.
as §1, with “The” for “(The”, “at 3.10^-5” for “with 3×10^-5”, “times.” for “times).”, “determined.” for “determined).”
as §2

[5] = rat liver membrane, 125I angiotensin II, 25° C., 150 minutes, read-out: AT1 Receptor IC50
[6] = rabbit uterus membrane (estradiol pre-treated), 125I angiotensin II, 25° C., 150 minutes, read-out: AT2 Receptor IC50
[7] = products P1 to P13, expressed in nM, read-out: On AT1 receptor IC50
[8] = products P1 to P13, expressed in nM, read-out: On AT2 receptor IC50

IC50 [3, 5] [nM]	IC50 [4, 6] [nM]	IC50 [3, 7] [nM]	IC50 [4, 8] [nM]	SMILES	ED50 [1] [mg/kg]	ED50 [2] [mg/kg]
0.07	1.7			CCCc1nc(SC(F)F)c(C(=O)O)n1Cc1ccc(-c2ccccc2S(=O)(=O)NC(=O)NCC2CCCCC2)cc1 [Example 45, 1-((2'-(((((cyclohexylmethyl)amino)carbonyl)amino)sulphonyl) (1,1'-biphenyl 4-yl)methyl) 4-(difluoromethyl)thio) 2-propyl 1H-imidazole 5-carboxylic acid]	1.1	0.22
0.2	2			CCCc1nc(SC)c(C(=O)O)n1Cc1ccc(-c2ccccc2S(=O)(=O)NC(=O)NCC2CCCCC2)cc1 [Example 23, sodium 1-((2'-(((((cyclohexylmethyl)amino)carbonyl)amino)sulphonyl) (1,1'-biphenyl) 4-yl)methyl] 4-(methylthio) 2-propyl 1H-imidazole 5-carboxylate]	1.54	0.3
				CCCc1nc(SC)c(C(=O)O)n1Cc1ccc(-c2ccccc2S(=O)(=O)NC(=O)Nc2ccccc2)cc1 [Example 62, 4-(methylthio) 1-((2'-((((phenylamino)carbonyl)amino)sulphonyl) (1,1'-biphenyl) 4-yl)methyl) 2-propyl 1H-imidazole 5-carboxylic acid]		0.52
0.2	5.9			CCCc1nc(SC)c(C(=O)O)n1Cc1ccc(-c2ccccc2S(=O)(=O)NC(=O)NCc2ccccc2)cc1 [Example 25, 4-(methylthio) 1-[(2'-(((((phenylmethyl)amino)carbonyl)amino)sulphonyl) (1,1'-biphenyl) 4-yl)methyl] 2-propyl 1H-imidazole 5-carboxylic acid]	1.45	0.22
0.5	0.8			CCCCC(O)(C(=O)O)c1c(SC)nc(CCC)n1Cc1ccc(-c2ccccc2S(=O)(=O)NC(=O)NCc2ccccc2)cc1 (stereo not drawn) [Example 32, sodium alpha-butyl alpha-hydroxy 4-(methylthio) 1-[(2'-(((((phenylmethyl)amino)carbonyl)amino)sulphonyl) (1,1'-biphenyl) 4-yl)methyl] 2-propyl 1H-imidazole 5-acetate]		0.46
				CCCCc1nc(SC)c(C(O)CC(=O)O)n1Cc1ccc(-c2ccccc2S(=O)(=O)NC(=O)NCc2ccccc2)cc1 (stereo not drawn) [Example 65, 2-butyl beta-hydroxy 4-(methylthio) 1-((2'-(((((phenylmethyl)amino)carbonyl)amino)sulphonyl) (1,1'-biphenyl) 4-yl)methyl) 1H-imidazole 5-propionic acid]		0.05
0.05		0.23	17	CCCCc1nc(SC)c(C(=O)O)n1Cc1ccc(-c2ccccc2S(=O)(=O)NC(=O)NCC2CCCCC2)cc1 [Example 75, 2-butyl 1-((2'-(((((cyclohexylmethyl)amino)carbonyl)amino)sulphonyl) (1,1'-biphenyl) 4-yl)methyl) 4-(methylthio) 1H-imidazole 5-carboxylic acid]		0.35
				CCCCc1nc(SC)c(C(=O)O)n1Cc1ccc(-c2ccccc2S(=O)(=O)NC(=O)C(c2ccccc2)c2ccccc2)cc1 [Example 30, 2-butyl 1-[(2'-(((diphenylacetyl)amino)sulphonyl) (1,1'-biphenyl) 4-yl)methyl] 4-(methylthio) 1H-imidazole 5-carboxylic acid]		0.93
0.03				CCCc1nc(SC(F)F)c(C(=O)O)n1Cc1ccc(-c2ccccc2S(=O)(=O)NC(=O)NCCc2cccs2)cc1 [Example 47]	3	0.33
				CCCc1nc(SC(F)F)c(C(=O)O)n1Cc1ccc(-c2ccccc2S(=O)(=O)NC(=O)NCCc2ccccc2)cc1 [Example 48]		0.64
0.11	0.26			CCCc1nc(SC(F)F)c(C(=O)O)n1Cc1ccc(-c2ccccc2S(=O)(=O)NC(=O)NCc2ccccc2)cc1 [Example 46, 4-((difluoromethyl)thio) 1-((2'-(((((phenylmethyl)amino)carbonyl)amino)sulphonyl) (1,1'-biphenyl) 4-yl)methyl) 2-propyl 1H-imidazole 5-carboxylic acid]	2	0.26
0.06	7.4			CCCc1nc(SC(F)F)c(C(=O)O)n1Cc1ccc(-c2ccccc2S(=O)(=O)NC(=O)NCc2cccs2)cc1 [Example 50, 4-((difluoromethyl)thio) 2-propyl 1-((2'-(((((2-thienylmethyl)amino)carbonyl)amino)sulphonyl) (1,1'-biphenyl) 4-yl)methyl) 1H-imidazole 5-carboxylic acid]		0.13
0.7	5.2			CCCCc1nc(SC)c(C(C)(O)C(=O)O)n1Cc1ccc(-c2ccccc2S(=O)(=O)NC(=O)OCc2ccccc2)cc1 (stereo not drawn) [Example 7, 2-butyl alpha-hydroxy alpha-methyl 4-(methylthio) 1-[(2'-((((phenylmethoxy)carbonyl)amino)sulphonyl) (1,1'-biphenyl) 4-yl)methyl] 1H-imidazole 5-acetic acid]		0.6
				CCCCc1nc(SC)c(C(N)=O)n1Cc1ccc(-c2ccccc2S(=O)(=O)NC(=O)NCCC)cc1 [Example 35, 2-butyl 4-(methylthio) 1-((2'-((((propylamino)carbonyl)amino)sulphonyl) (1,1'-biphenyl) 4-yl)methyl) 1H-imidazole 5-carboxamide]		0.05
		0.3	25	CCCCc1nc(SC)c(C(=O)O)n1Cc1ccc(-c2ccccc2S(=O)(=O)NC(=O)NCc2ccc(OC)cc2)cc1 [Example P5, 2-butyl 1-[(2'-((((((4-methoxy)phenylmethyl)amino)carbonyl)amino)sulphonyl) (1,1'-biphenyl) 4-yl)methyl] 4-methylthio 1H-imidazole 5-carboxylic acid]		

SMILES	IC50 [3, 5] [nM]	IC50 [4, 6] [nM]	IC50 [3, 7] [nM]	IC50 [4, 8] [nM]	ED50 [1] [mg/kg]	ED50 [2] [mg/kg]
CCCCc1nc(SC)c(C(=O)O)n1Cc1ccc(-c2ccccc2S(=O)(=O)NC(=O)NCC(C)c2ccccc2)cc1 (stereo not drawn) [Example P3, 2-butyl 4-(methylthio) 1-[(2'-(((((1-beta-phenylpropyl)amino)carbonyl)amino)sulphonyl) (1,1'-biphenyl) 4-yl)methyl] 1H-imidazole 5-carboxylic acid]			1.1	11		
